Experimental data from patent US20190269730A1, “REGULATABLE CELL LINES AND METHODS OF USE THEREOF” (Auxolytic Ltd, priority 2016, published 2019).

What was measured:
[1] = system: human T cells; test: 5-FOA resistance assay of UMPS targeted vs mock targeted T cells (cell counts after 4 days); type: cell-based; conditions: for survival / viability of cells in 5-FOA: mock treated and UMPS targeted T cells grown in 5-FOA for 4 days, UMP or Uridine 250 ug/ml, 5% human serum
Protocol: (§1) Cells were cryopreserved in Bambanker medium. After thawing cells were cultured at 37° C., 5% CO2 in X-Vivo 15 (Lonza) supplemented with or without 5% human serum (Sigma-Aldrich) and 100 IU/ml human recombinant IL-2 (Peprotech) and 10 ng/ml human recombinant IL-7 (BD Biosciences). UMP or Uridine were added at 250 ug/ml. 5-FOA was added at 100 ug/ml to 1 mg/ml. During culture, medium was refreshed every 2 days.
(§2) Genomic DNA was harvested using QuickExtract (Epicentre). Cells were counted on an automated cell counter using Trypan blue staining or on a Cytoflex (Beckman Coulter) flow cytometer using CountBright beads (ThermoFisher) as a reference. Data was analyzed using Excel (Microsoft) and FlowJo (Tree Star).
5-FOA selects for uracil auxotrophic cells in other organisms (e.g. Boeke et al. 1984, Mol. Gen. Genet. 197(2):345-6). To investigate the potential utility of 5-FOA for the selection of uracil auxotrophs in human cells, the UMPS gene was targeted in human T cells by Cas9-gRNA complex electroporation followed by recovery (as in Example 2) followed by an assay of resistance to 5-FOA treatment (FIG. 3A). Cells were grown in 5-FOA and a variety of combinations of serum and uracil sources for 4 days before cell counting was performed. […] This is likely through a competition based mechanism (uridine can reverse 5-fluorouracil toxicity in humans (van Groeningen et al. 1992, Semin. Oncol. 19(2 Suppl 3):148-54)) (FIGS. 3B and C).

[2] = system: 5-FOA selected UMPS targeted T cells; test: Uracil auxotrophy growth assay of 5-FOA selected T cells (cell counts at day 8); type: cell-based, human
Protocol: as §1, §2
To assay whether or not the cells selected for by 5-FOA treatment are uracil auxotrophs, mock or UMPS targeted T cells were exposed to 5-FOA as in Example 4. Following 4 days of 5-FOA selection, the population of cells was split into a uracil containing media (either UMP, uridine or both) and a uracil deficient media. A growth assay was subsequently performed by cell counting after following 4 days incubation in test media (day 8) (FIG. 4A).

[3] = system: UMPS edited human T cells; test: Growth of heterogeneous UMPS edited T cell population with/without exogenous uracil source (cell counts); type: cell-based; conditions: UMP or Uridine added at 250 ug/ml; no selection step; compared with mock edited and CCR5 targeted controls
Protocol: Cells were cryopreserved in Bambanker medium. After thawing cells were cultured at 37° C., 5% CO2 in X-Vivo 15 (Lonza) supplemented with or without 5% human serum (Sigma-Aldrich) and 100 IU/ml human recombinant IL-2 (Peprotech) and 10 ng/ml human recombinant IL-7 (BD Biosciences). UMP or Uridine were added at 250 ug/ml. 5-FOA was added at 100 ug/ml to 1 mg/ml. During culture, medium was refreshed every 2 days. T cells were activated using immobilized Anti-CD3 (clone OKT3, Tonbo Biosciences) and soluble anti-CD28 (clone CD28.2, Tonbo Biosciences) for 3 days before electroporation. For the experiments in FIGS. 1, 3 and 4, 1.4 million activated T cells were electroporated. For the experiments in FIG. 2, 30,000 activated T cells were electroporated per condition. These cells were resuspended in electroporation solution, mixed with the pre-complexed RNP and electroporated using a 4D-Nucleofector (Lonza) using program EO-115. The RNP consisted of Cas9 protein (Alt-R® S. pyogenes, IDT) at 300 ug/ml and sgRNA using a sgRNA:Cas9 molar ratio of 2.5. Genomic DNA was harvested using QuickExtract (Epicentre). Cells were counted on an automated cell counter using Trypan blue staining or on a Cytoflex (Beckman Coulter) flow cytometer using CountBright beads (ThermoFisher) as a reference. Data was analyzed using Excel (Microsoft) and FlowJo (Tree Star). […]

Structure (SMILES)	toxicity of 5-FOA ([1]; UMPS targeted vs mock targeted T cells, 4 days of 5-FOA selection, 100 ug/ml to 1 mg/ml)	killing of non-UMPS targeted cells during 5-FOA selection ([2]; mock targeted T cell cultures, growth negligible after selection)	growth of UMPS edited cells [3]	survival / viability of cells in 5-FOA [1]	cell growth of 5-FOA selected UMPS targeted population ([2]; 4 days in uracil containing (UMP, uridine or both) vs uracil deficient media after 4 days of 5-FOA selection)
O=C(O)c1[nH]c(=O)[nH]c(=O)c1F [5-FOA, 5-fluoroorotic acid]	less toxic in UMPS targeted cell lines	successful killing of non-UMPS targeted cells	–	–	–
O=c1ccn([C@@H]2O[C@H](COP(=O)(O)O)[C@@H](O)[C@H]2O)c(=O)[nH]1 [UMP]	–	–	rescue the growth of UMPS edited cells to the same level as mock edited and CCR5 targeted controls	improved the survival of both mock treated and UMPS targeted cells in 5-FOA	–
O=c1cc[nH]c(=O)[nH]1 [uracil]	–	–	–	–	cell growth was stimulated
O=c1ccn([C@@H]2O[C@H](CO)[C@@H](O)[C@H]2O)c(=O)[nH]1 [uridine]	–	–	rescue the growth of UMPS edited cells to the same level as mock edited and CCR5 targeted controls	improved the survival of both mock treated and UMPS targeted cells in 5-FOA	–
